In ChEMBL document CHEMBL3826929, “Discovery and Preclinical Evaluation of BMS-711939, an Oxybenzylglycine Based PPARα Selective Agonist” (ACS Med Chem Lett, 2016):
pEC50, pIC50: −log10 of the molar value. In brackets after ≈: the same amount, converted by molar mass.

Legend:
[1] = AUC (0 to 8 hrs) in cynomolgus monkey at 2 mg/kg, po; format: ADME, organism-based, Macaca fascicularis; parameters: time < 8 hr, dose 2 mg/kg, route oral; conditions: in vivo
[2] = Tmax in Balb/c mouse at 10 mg/kg, po; format: ADME, organism-based; conditions: in vivo
[3] = Volume of distribution at steady state in Sprague-Dawley rat at 4 mg/kg, iv; format: ADME, organism-based; conditions: in vivo, read-out: Vdss
[4] = AUC (0 to 8 hrs) in Sprague-Dawley rat at 8 mg/kg, po; format: ADME, organism-based; parameters: time < 8 hr, dose 8 mg/kg, route oral; conditions: in vivo
Cytochrome P450 1A2 = Cytochrome P450 1A2 (Homo sapiens, UniProt P05177); test: Inhibition of CYP1A2 (unknown origin); format: ADME
Cytochrome P450 1A2, sequence (P05177 whole entry): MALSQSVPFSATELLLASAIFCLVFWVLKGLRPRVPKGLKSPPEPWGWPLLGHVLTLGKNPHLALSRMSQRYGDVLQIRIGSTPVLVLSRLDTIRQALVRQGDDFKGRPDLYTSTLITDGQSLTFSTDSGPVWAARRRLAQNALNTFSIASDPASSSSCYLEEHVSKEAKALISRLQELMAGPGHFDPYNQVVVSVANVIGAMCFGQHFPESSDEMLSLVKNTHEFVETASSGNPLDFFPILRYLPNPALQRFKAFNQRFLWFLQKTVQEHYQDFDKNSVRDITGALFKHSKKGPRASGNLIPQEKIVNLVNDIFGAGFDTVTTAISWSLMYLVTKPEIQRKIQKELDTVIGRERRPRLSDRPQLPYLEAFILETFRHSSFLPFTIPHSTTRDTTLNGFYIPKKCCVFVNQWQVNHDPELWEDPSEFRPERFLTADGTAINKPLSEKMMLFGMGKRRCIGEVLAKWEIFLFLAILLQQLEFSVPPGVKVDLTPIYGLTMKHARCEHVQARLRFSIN

Syrian golden hamster [5] = test: Decrease in liver cholesterol level in high fat-diet fed syrian golden hamster model of dyslipidemia at 3 mg/kg administered qd through oral gavage measured after 21 days by FPLC analysis relative to control; format: functional, Mesocricetus auratus; parameters: scale not given: the % may be the effect or the level left
[6] = target: T1, Peroxisome proliferator-activated receptor gamma (Homo sapiens, UniProt P37231); test: Agonist activity at full length human PPAR-gamma transfected in human HepG2 cells by luciferase reporter gene assay; format: cell-based
T1 sequence (P37231 whole entry): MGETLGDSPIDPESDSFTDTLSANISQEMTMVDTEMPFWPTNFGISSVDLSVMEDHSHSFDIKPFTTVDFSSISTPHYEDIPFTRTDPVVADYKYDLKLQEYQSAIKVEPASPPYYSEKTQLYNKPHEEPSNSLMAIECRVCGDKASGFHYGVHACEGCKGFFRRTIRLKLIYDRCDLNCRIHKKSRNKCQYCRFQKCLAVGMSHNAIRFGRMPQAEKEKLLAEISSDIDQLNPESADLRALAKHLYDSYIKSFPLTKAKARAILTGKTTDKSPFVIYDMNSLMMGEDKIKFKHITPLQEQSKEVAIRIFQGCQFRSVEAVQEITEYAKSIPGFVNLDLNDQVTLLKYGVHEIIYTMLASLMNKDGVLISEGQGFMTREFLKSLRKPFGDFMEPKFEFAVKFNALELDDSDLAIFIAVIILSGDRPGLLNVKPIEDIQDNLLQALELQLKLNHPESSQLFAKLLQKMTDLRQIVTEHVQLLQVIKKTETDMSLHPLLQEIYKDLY

[7] = Protein binding in cynomolgus monkey plasma; format: ADME, cell-free, Macaca fascicularis; conditions: read-out: PPB
[8] = Cmax in dog at 2 mg/kg, po; format: ADME, organism-based, Canis lupus familiaris; parameters: dose 2 mg/kg, route oral; conditions: in vivo
Syrian golden hamster [9] = test: Decrease in plasma LDL cholesterol level in high fat-diet fed syrian golden hamster model of dyslipidemia administered qd through oral gavage measured after 21 days by FPLC analysis relative to control; format: functional, organism-based; conditions: Mesocricetus auratus
[10] = target: T2, Peroxisome proliferator-activated receptor alpha (Homo sapiens) (UniProt Q07869); test: Intrinsic activity at PPAR-alpha (unknown origin) relative to fenofibric acid
T2 sequence (whole entry): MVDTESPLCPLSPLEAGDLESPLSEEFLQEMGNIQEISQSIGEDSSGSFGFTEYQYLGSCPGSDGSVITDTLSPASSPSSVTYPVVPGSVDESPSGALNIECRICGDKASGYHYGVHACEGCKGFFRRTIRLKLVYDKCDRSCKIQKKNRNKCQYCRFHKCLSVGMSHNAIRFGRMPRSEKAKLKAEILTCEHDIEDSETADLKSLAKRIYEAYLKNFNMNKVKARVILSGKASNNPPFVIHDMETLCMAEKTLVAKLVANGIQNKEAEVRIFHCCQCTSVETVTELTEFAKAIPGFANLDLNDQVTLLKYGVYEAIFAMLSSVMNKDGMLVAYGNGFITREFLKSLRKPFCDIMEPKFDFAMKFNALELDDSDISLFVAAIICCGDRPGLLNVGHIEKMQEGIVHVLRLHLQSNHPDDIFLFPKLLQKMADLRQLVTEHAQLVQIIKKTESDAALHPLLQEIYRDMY

Mus musculus [11] = test: Decrease in triglyceride level in transgenic mouse expressing human ApoA1 at 3 mg/kg administered qd through oral gavage measured after 10 days relative to vehicle control; format: functional; parameters: scale not given: the % may be the effect or the level left
[12] = Tmax in dog at 2 mg/kg, po; format: ADME, organism-based, Canis lupus familiaris; conditions: in vivo
Mus musculus [13] = test: Decrease in triglyceride level in transgenic mouse expressing human ApoA1 at 10 mg/kg administered qd through oral gavage measured after 10 days relative to vehicle control; format: functional; parameters: scale not given: the % may be the effect or the level left
[14] = Tmax in cynomolgus monkey at 2 mg/kg, po; format: ADME, organism-based, Macaca fascicularis; conditions: in vivo
Cytochrome P450 2C9 = Cytochrome P450 2C9 (Homo sapiens, UniProt P11712); test: Inhibition of CYP2C9 (unknown origin); format: ADME
Cytochrome P450 2C9, sequence (P11712 whole entry): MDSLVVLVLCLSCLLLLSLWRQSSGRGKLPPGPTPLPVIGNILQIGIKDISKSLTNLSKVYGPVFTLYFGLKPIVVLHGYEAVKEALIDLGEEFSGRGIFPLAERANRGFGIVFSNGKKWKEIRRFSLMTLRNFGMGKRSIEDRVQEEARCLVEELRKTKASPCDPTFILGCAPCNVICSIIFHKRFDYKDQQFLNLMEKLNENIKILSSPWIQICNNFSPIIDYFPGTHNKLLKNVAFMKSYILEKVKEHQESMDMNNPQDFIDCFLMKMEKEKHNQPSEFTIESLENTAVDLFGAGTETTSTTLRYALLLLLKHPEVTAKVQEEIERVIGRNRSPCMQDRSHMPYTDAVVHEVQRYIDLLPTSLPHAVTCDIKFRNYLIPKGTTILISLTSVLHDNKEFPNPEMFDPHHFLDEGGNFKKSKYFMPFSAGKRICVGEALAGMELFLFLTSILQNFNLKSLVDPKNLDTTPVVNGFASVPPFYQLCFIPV

Mus musculus [15] = test: Increase in HDL cholesterol level in transgenic mouse expressing human ApoA1 at 10 mg/kg administered qd through oral gavage measured after 10 days relative to vehicle control; format: functional
[16] = target: T1, Peroxisome proliferator-activated receptor gamma; test: Binding affinity to human GST-tagged PPAR-gamma LBD expressed in Escherichia coli BL21 after 30 mins in presence of fluorescein ligand FLA-A by fluorescence polarization assay
[17] = Aqueous solubility of the compound at pH 7.2; format: physicochemical; conditions: buffer
Glucocorticoid receptor = Glucocorticoid receptor (Homo sapiens, UniProt P04150); test: Agonist activity at human GR by transactivation assay
Glucocorticoid receptor, sequence (P04150 whole entry): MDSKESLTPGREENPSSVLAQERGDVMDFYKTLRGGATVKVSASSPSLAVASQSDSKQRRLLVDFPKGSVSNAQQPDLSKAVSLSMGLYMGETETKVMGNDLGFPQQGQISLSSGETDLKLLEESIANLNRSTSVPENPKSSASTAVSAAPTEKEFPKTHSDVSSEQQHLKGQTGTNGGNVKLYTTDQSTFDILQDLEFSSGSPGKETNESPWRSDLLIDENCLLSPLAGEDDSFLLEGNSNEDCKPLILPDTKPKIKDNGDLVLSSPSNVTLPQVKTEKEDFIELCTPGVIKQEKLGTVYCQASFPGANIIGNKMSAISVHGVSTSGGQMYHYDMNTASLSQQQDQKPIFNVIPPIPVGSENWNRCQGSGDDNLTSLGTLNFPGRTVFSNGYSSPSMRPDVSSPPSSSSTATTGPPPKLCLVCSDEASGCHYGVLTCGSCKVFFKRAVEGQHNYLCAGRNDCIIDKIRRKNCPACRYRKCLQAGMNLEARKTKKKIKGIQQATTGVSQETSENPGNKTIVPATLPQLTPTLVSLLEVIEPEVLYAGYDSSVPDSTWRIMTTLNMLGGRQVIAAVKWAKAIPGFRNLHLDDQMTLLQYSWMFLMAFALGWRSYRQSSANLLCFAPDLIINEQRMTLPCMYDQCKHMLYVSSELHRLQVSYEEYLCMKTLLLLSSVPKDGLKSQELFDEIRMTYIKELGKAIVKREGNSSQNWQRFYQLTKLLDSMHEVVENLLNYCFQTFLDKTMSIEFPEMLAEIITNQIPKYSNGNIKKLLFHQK

Retinoid X receptor = Retinoid X receptor (Homo sapiens, UniProt P28702+P48443+P19793); test: Agonist activity at human RXR by transactivation assay; format: protein assay
[18] = Volume of distribution at steady state in Balb/c mouse at 5 mg/kg, iv; format: ADME, organism-based; conditions: in vivo, read-out: Vdss
Rhesus monkey = test: Cardiovascular toxicity in monkey assessed as change in electrocardiographic effect up to 20 mg/kg administered as single dose by telemetry test; format: organism-based, Macaca mulatta; conditions: in vivo
[19] = target: Liver X receptor (Homo sapiens) (UniProt Q13133+P55055); test: Agonist activity at human LXR by transactivation assay relative to standard compound; format: protein assay
[20] = Oral bioavailability in Sprague-Dawley rat at 8 mg/kg; format: ADME, organism-based; conditions: in vivo
hERG (KCNH2) = hERG (KCNH2) (Homo sapiens, UniProt Q12809); test: Inhibition of human ERG at 30 uM by patch-clamp method
hERG (KCNH2), sequence (Q12809 whole entry): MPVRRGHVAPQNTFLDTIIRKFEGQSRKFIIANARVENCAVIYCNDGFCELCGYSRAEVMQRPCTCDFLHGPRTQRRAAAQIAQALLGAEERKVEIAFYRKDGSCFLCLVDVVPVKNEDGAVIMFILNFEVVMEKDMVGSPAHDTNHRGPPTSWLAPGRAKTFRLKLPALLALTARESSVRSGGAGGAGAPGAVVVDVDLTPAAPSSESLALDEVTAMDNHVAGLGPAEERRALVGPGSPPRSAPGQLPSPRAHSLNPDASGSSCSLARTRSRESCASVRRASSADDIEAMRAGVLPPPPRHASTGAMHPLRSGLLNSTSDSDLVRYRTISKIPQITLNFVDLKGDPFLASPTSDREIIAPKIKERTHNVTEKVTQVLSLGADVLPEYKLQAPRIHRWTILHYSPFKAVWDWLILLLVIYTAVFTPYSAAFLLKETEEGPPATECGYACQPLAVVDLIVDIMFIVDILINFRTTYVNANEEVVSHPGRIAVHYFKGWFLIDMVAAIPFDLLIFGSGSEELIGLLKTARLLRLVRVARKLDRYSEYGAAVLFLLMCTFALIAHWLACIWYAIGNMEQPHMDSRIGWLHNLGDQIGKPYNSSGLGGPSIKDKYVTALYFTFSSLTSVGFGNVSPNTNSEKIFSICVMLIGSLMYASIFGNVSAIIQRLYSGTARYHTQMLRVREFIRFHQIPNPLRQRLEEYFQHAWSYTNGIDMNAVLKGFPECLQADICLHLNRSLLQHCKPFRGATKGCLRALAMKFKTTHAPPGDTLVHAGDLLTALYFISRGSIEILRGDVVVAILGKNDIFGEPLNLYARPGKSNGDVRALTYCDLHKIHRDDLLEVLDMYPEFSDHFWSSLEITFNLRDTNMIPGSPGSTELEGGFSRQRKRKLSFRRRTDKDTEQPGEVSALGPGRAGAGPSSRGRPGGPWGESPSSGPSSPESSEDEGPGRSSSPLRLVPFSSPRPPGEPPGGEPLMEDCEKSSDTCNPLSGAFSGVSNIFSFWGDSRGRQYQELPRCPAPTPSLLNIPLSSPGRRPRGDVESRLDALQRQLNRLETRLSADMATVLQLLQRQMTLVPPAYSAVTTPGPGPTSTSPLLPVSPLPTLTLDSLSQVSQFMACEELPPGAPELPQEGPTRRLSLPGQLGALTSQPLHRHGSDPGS

Syrian golden hamster [21] = test: Decrease in plasma triglyceride level in high fat-diet fed syrian golden hamster model of dyslipidemia at 10 mg/kg administered qd through oral gavage measured after 21 days by FPLC analysis relative to control; format: functional, Mesocricetus auratus; parameters: scale not given: the % may be the effect or the level left
[22] = Plasma clearance in dog at 1 mg/kg, iv; format: ADME, organism-based, Canis lupus familiaris
Mus musculus [23] = test: Increase in HDL cholesterol level in transgenic mouse expressing human ApoA1 compound administered qd through oral gavage measured after 10 days; format: functional, organism-based
Syrian golden hamster [24] = test: Decrease in plasma triglyceride level in high fat-diet fed syrian golden hamster model of dyslipidemia at 1 mg/kg administered qd through oral gavage measured after 21 days by FPLC analysis relative to control; format: functional, Mesocricetus auratus; parameters: scale not given: the % may be the effect or the level left
Syrian golden hamster [25] = test: Decrease in plasma LDL cholesterol level in high fat-diet fed syrian golden hamster model of dyslipidemia at 1 mg/kg administered qd through oral gavage measured after 21 days by FPLC analysis relative to control; format: functional, Mesocricetus auratus; parameters: scale not given: the % may be the effect or the level left
Cytochrome P450 2C8 = Cytochrome P450 2C8 (Homo sapiens, UniProt P10632); test: Inhibition of CYP2C8 (unknown origin); format: ADME
Cytochrome P450 2C8, sequence (P10632 whole entry): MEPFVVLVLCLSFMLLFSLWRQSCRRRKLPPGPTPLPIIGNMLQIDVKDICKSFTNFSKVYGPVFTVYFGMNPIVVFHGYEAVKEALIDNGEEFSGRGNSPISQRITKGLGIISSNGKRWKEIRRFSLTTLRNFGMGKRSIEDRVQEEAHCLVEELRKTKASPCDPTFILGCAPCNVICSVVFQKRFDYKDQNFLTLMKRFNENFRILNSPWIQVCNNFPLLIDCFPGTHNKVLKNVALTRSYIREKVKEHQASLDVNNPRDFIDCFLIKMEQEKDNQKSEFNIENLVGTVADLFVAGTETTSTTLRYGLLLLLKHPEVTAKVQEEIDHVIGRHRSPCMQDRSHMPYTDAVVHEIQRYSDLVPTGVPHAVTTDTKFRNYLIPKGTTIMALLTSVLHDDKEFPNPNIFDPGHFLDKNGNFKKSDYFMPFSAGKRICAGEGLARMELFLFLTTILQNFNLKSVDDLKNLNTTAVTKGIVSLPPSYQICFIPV

[26] = AUC (0 to 8 hrs) in Sprague-Dawley rat at 4 mg/kg, iv; format: ADME, organism-based; parameters: time < 8 hr, dose 4 mg/kg, route intravenous; conditions: in vivo
[27] = Protein binding in mouse plasma; format: ADME, cell-free; conditions: read-out: PPB (converted)
Mus musculus [28] = test: Increase in serum ApoA1 level in transgenic mouse expressing human ApoA1 compound administered qd through oral gavage measured after 10 days; format: functional, organism-based

COC(=O)N(CC(=O)O)Cc1cc(OCc2nc(-c3ccc(Cl)cc3)oc2C)ccc1F
AUC(0-t) at 8 h [1]: 8.5 µM·h
Tmax [2]: 15 min
Vd [3]: 2.2 L/kg
AUC(0-t) at 8 h [4]: 32 µM·h
pIC50 (Cytochrome P450 1A2): < 4.40
Activity (Syrian golden hamster [5]): 56.8%
pEC50 [6]: < 5.79
fraction unbound [7]: 0.01
Cmax [8]: 1500 nM
Activity (Syrian golden hamster [9]): Dose-dependent effect
Intrinsic activity [10]: > 50%
Activity (Mus musculus [11]): 14.2%
Tmax [12]: 48 min
Activity (Mus musculus [13]): 23.5%
Tmax [14]: 54 min
pIC50 (Cytochrome P450 2C9): < 4.40
Activity (Mus musculus [15]): 74%
pIC50 [16]: < 4.01
solubility [17]: 367 µg/mL (≈ 793 µM)
pEC50 (Glucocorticoid receptor): < 4.60
EC50 (Retinoid X receptor): > 25 µM
Vd [18]: 0.6 L/kg
Activity (Rhesus monkey): Non-toxic
Efficacy [19]: < 15%
bioavailability [20]: 100%
inhibition at 30 µM (hERG (KCNH2)): 4%
Activity (Syrian golden hamster [21]): 85%
clearance [22]: 10.7 mL/min/kg
Activity (Mus musculus [23]): Dose-dependent effect
Activity (Syrian golden hamster [24]): 50%
Activity (Syrian golden hamster [25]): 24%
pIC50 (Cytochrome P450 2C8): < 4.40
AUC(0-t) at 8 h [26]: 9.4 µM·h
fraction unbound [27]: 0.002
Activity (Mus musculus [28]): Dose-dependent effect
